Data published in patent US5663159A, “Prodrugs of phosphonates” (Institute of Organic Chemistry and Biochemistry of the …, priority 1994, dated 1997).
Values after ≈ are worked out from the molar mass of the structure shown. “Also recorded” adds a separate entry of the source. Where a name gives a salt, the structure may show the parent alone. Read-outs that look alike come from different tables or passages of the source.

How the values were obtained:
[1] = system: human cytomegalovirus (HCMV); conditions: literature; cited from earlier work
[2] = system: herpes simplex virus, type 1 (HSV-1); conditions: literature; cited from earlier work
P388 leukemia = conditions: murine tumor model; cited from earlier work
[3] = system: suid herpesvirus type 1 (SHV-1, or pseudorabies virus or Aujeszky's disease virus); conditions: literature; cited from earlier work
[4] = system: simian herpesvirus platyrrhinae (HVP); conditions: literature; cited from earlier work
[5] = system: phocid herpesvirus type 1 (seal herpesvirus, SeHV); conditions: literature; cited from earlier work
[6] = system: herpes simplex virus, type 2 (HSV-2); conditions: literature; cited from earlier work
[7] = system: equid herpesviruse type 1 (equine abortion virus, EHV-1); conditions: literature; cited from earlier work
vaccinia virus = conditions: literature; cited from earlier work
[8] = system: murine sarcoma virus (MSV); conditions: literature; cited from earlier work
[9] = system: thymidine kinase-deficient (TK^-) mutants of herpes simplex; conditions: literature; cited from earlier work
[10] = system: herpes simplex virus type 1; conditions: mice in vivo; including herpetic keratitis caused by a TK^- mutant; cited from earlier work
adenovirus = conditions: literature; cited from earlier work
[11] = system: varicella zoster virus (VZV); conditions: literature; cited from earlier work
[12] = system: herpes simplex virus type 1; conditions: rabbits in vivo; including herpetic keratitis caused by a TK^- mutant; cited from earlier work
[13] = system: bovid herpesvirus type 1 (infectious bovine rhinotracheitis virus, BHV-1); conditions: literature; cited from earlier work
[14] = system: African swine fever (ASF) virus; conditions: literature; cited from earlier work
[15] = system: Rauscher murine leukemia virus (R-MuLV); conditions: cited from earlier work
[16] = system: Rauscher murine leukemia virus (R-MuLV); conditions: mice; vs 3'-azido-3'-deoxythymidine (AZT); cited from earlier work
[17] = system: murine cytomegalovirus (MCMV); conditions: cited from earlier work
[18] = system: human immunodeficiency virus (HIV); conditions: literature, cited from earlier work
HSV-2 (G STRAIN) = test: In vitro activity of PMEA prodrugs against HSV-2 (G strain), plaque reduction; type: cell-based; conditions: for IC50: Human alphaherpesvirus 2, dose which gives a 50% reduction of plaque formation, read-out: ID50 (the source's name); for ID50: dose which gives a 50% reduction of plaque formation
Description: PRODRUGS AGAINST HSV-2 (G STRAIN)
^a DOSE WHICH GIVES A 50% REDUCTION OF PLACQUE FORMATION

[19] = Toxicity in the in vitro HSV-2 test
herpes viruses = conditions: cited from earlier work
B16 melanoma = conditions: murine tumor model; cited from earlier work
HSV 1 = conditions: in vivo, mice; more potent than acyclovir; cited from earlier work

Nc1ncnc2c1ncn2C[C@@H](CO)OCP(=O)(O)O [(S)-HPMPA, (S)-9-((3-hydroxy-2-phosphonylmethoxy)propyl)adenine]
activity against HCMV [1]: potent and selective activity | activity against HSV-1 [2]: potent and selective activity; also recorded: active | activity against intraperitoneal P388 leukemia (P388 leukemia): active | activity against SHV-1 [3]: potent and selective activity | activity against HVP [4]: potent and selective activity | activity against SeHV [5]: potent and selective activity | activity against HSV-2 [6]: potent and selective activity; also recorded: active | activity against EHV-1 [7]: potent and selective activity | activity against vaccinia virus (vaccinia virus): potent and selective activity; also recorded: active | activity against MSV [8]: potent and selective activity | activity against TK^- mutants of herpes simplex [9]: potent and selective activity | efficacy against local and systemic HSV-1 infections [10]: effective | activity against adenovirus (adenovirus): potent and selective activity; also recorded: active | activity against VZV [11]: potent and selective activity; also recorded: active | efficacy against local and systemic HSV-1 infections [12]: effective | activity against BHV-1 [13]: potent and selective activity | activity against ASF virus [14]: potent and selective activity

Nc1ccn(C[C@@H](CO)OCP(=O)(O)O)c(=O)n1 [(S)-HPMPC]
activity against HCMV [1]: active | activity against HSV-1 [2]: active | activity against HSV-2 [6]: active

Nc1nc(N)c2ncn(C[C@@H](CO)OCP(=O)(O)O)c2n1 [(S)-HPMPDAP]
activity against HSV-1 [2]: active | activity against HSV-2 [6]: active

Nc1nc2c(ncn2C[C@@H](CO)OCP(=O)(O)O)c(=O)[nH]1 [(S)-HPMPG]
activity against HSV-1 [2]: active | activity against HSV-2 [6]: active

Nc1ncnc2c1ncn2C[C@H]1COP(=O)(O)CO1 [(S)-cyclic HPMPA]
activity against HSV-1 [2]: active | activity against HSV-2 [6]: active | activity against vaccinia virus (vaccinia virus): active | activity against adenovirus (adenovirus): active | activity against VZV [11]: active

Nc1ncnc2c1ncn2CCOCP(=O)(O)O [Example 1, 9-(2-Phosphonylmethoxy)ethyladenine]
activity against HCMV [1]: in vitro activity | activity against HSV-1 [2]: active | in vitro activity against R-MuLV [15]: good in vitro activity | activity against intraperitoneal P388 leukemia (P388 leukemia): active | activity against HSV-2 [6]: active | potency in vivo relative to AZT in the treatment of R-MuLV [16]: more potent in vivo | antiviral effect in vivo against MCMV [17]: significant antiviral effect | CC50 (in vitro): > 166 µg/mL | activity against HIV ([18]; listed as PMEA): active; also recorded: good in vitro activity | IC50 (HSV-2 (G STRAIN)): 39 µg/mL (≈ 143 µM)

CC(C)(C)C(=O)OCOP(=O)(COCCn1cnc2c(N)ncnc21)OCOC(=O)C(C)(C)C [Example 9, PMEA, di(pivaloyloxymethyl ester)]
CC50 (in vitro): 100 µg/mL (≈ 199 µM) | IC50 (HSV-2 (G STRAIN)): 0.28 µg/mL (≈ 0.558 µM)

CCC(=O)OCOP(=O)(COCCn1cnc2c(N)ncnc21)OCOC(=O)CC [Example 12, PMEA, di-(propionyloxymethyl ester)]
CC50 (in vitro): 100 µg/mL (≈ 225 µM) | IC50 (HSV-2 (G STRAIN)): 0.17 µg/mL (≈ 0.382 µM)

CC(C)C(=O)OCOP(=O)(COCCn1cnc2c(N)ncnc21)OCOC(=O)C(C)C [Example 13, PMEA, di-(isobutyrloxymethyl ester)]
CC50 (in vitro): 100 µg/mL (≈ 211 µM) | IC50 (HSV-2 (G STRAIN)): < 0.1 µg/mL

CC(C)(C)C(=O)OCOP(=O)(O)COCCn1cnc2c(N)ncnc21 [Example 15, PMEA, mono pivaloyloxymethyl ester]
CC50 [19]: 100 µg/mL (≈ 258 µM) | IC50 (HSV-2 (G STRAIN)): 8.1 µg/mL (≈ 20.9 µM)

CC(C)OP(=O)(COCCn1cnc2c(N)ncnc21)Oc1ccccc1 (centres unmarked) [Example 16, PMEA, (mono isopropyl, monophenyl) ester]
CC50 [19]: 100 µg/mL (≈ 256 µM) | ID50 (HSV-2 (G STRAIN)): > 100 µg/mL

Nc1ncnc2c1ncn2CCOCP(=O)(O)OCCCO [Example 22, PMEA, 3-hydroxypropanyl ester, (sodium salt)]
CC50 (in vitro): > 166 µg/mL | IC50 (HSV-2 (G STRAIN)): 110 µg/mL

Nc1ncnc2c1ncn2CCOCP(=O)(O)Oc1ccccc1 [Example 34, PMEA, monophenyl ester (sodium salt)]
CC50 [19]: > 166 µg/mL | ID50 (HSV-2 (G STRAIN)): 42 µg/mL

Nc1ncnc2c1ncn2CCOCP(=O)(Oc1ccccc1)Oc1ccccc1 [Example 35, PMEA, diphenyl ester]
CC50 [19]: > 166 µg/mL | ID50 (HSV-2 (G STRAIN)): 34 µg/mL (≈ 79.9 µM)

Nc1nc(N)c2ncn(CCOCP(=O)(O)O)c2n1 [PMEDAP]
activity against HSV-1 [2]: active | activity against HSV-2 [6]: active | activity against HIV [18]: active

Nc1nc2c(ncn2CCOCP(=O)(O)O)c(=O)[nH]1 [PMEG]
activity against HSV-1 [2]: active | activity against intraperitoneal P388 leukemia (P388 leukemia): active | activity against HSV-2 [6]: active | in vitro potency against herpes viruses (herpes viruses): exceptionally potent | activity against B16 melanoma (B16 melanoma): active | potency relative to acyclovir against HSV 1 infection (HSV 1): > 50 fold

Nc1ncc2ncn(CCOCP(=O)(O)O)c2n1 [PMEMAP]
activity against HIV [18]: active
